The test system of data set [1] is etoposide-resistant cell line. The conditions noted are these: cited from earlier work.
For data set [2] the following is noted: etoposide phosphate plus cisplatin; cited from earlier work.
The conditions of data set [3]: cited from earlier work.
The conditions of data set [4]: in vivo; cited from earlier work.
The test system of data set [5] is blood plasma proteins (primarily albumin). The conditions noted are these: cited from earlier work.
For data set [6] the following is noted: aqueous solutions, 80° C., pH 5; cited from earlier work.
The nature of the next data set: physchem. The conditions noted are these: distilled water, 25 °C, thermodynamic from solid.
The conditions of data set [7]: distilled water, 25° C.
Protocol: (§1) Afterwards, each sample was centrifuged at 12,000×g for 20 min. The supernatant of each sample was then filtered through a 0.45-μm membrane filter and the concentration of the compound in the supernatant, which is defined as the water-soluble component, was measured by its absorbance at 254 nm using HPLC, and its absolute solubility was calculated in reference to the concentration-absorbance standard curve.

The structures appear in SMILES notation. Values after ≈ are worked out from the molar mass of the structure shown.

Protocol for physchem: as §1

For `COc1cc([C@@H]2c3cc4c(cc3[C@@H](O[C@@H]3O[C@@H]5CO[C@@H](C)O[C@H]5[C@H](O)[C@H]3O)[C@H]3COC(=O)[C@H]23)OCO4)cc(OC)c1OC(=O)OCC1COC(C)(C)O1` (stereo partly drawn) [CAP7.1], in data set [1], the “concentrations cytotoxic to an etoposide-resistant cell line” value was “nanomolar concentrations”.

The term aqueous solubility denotes how much of the substance goes into solution per volume. As to `COc1cc([C@@H]2c3cc4c(cc3[C@@H](O[C@@H]3O[C@@H]5CO[C@@H](C)O[C@H]5[C@H](O)[C@H]3O)[C@H]3COC(=O)[C@H]23)OCO4)cc(OC)c1OP(=O)(O)O` [Etoposide phosphate], the “difference in PK/PD parameters or overall response rate versus etoposide plus cisplatin” value in data set [2] is given as “no statistically significant difference”. Further, in data set [3], the aqueous solubility is 20000 µg/mL.

What is called half-life is how long it takes for the measured level to halve. For orientation: solubility means the dissolved amount per volume that the medium holds. Higher therefore signals a readily soluble substance. As to `COc1cc([C@@H]2c3cc4c(cc3[C@@H](O[C@@H]3O[C@@H]5CO[C@@H](C)O[C@H]5[C@H](O)[C@H]3O)[C@H]3COC(=O)[C@H]23)OCO4)cc(OC)c1O` [etoposide, Etoposide], the “solubility in aqueous solutions” value in data set [3] (37° C.) is 150 to 170 µg/mL. Besides, the half-life in data set [4] is 4 to 11 h. In data set [5], the “bound to blood plasma proteins” value is recorded as 97%. Further, the half life in data set [6] is 0.643 h. For the same molecule, in “physchem”, the solubility at 12 h worked out at 56 µg/mL (≈ 95.1 µM).

On to `COc1cc(C2c3cc4c(cc3C(OC3OC5COC(C)OC5C(OC5OC(CO)C(O)C(O)C5O)C3O)C3COC(=O)C23)OCO4)cc(OC)c1O` (stereo not drawn), for which the “water solubility relative to etoposide” value in data set [7] is 200 times.

The values are drawn from patent publication US20230192748A1 (DoubleRainbow Biosciences Inc., priority 2020, published 2023).
